What was measured:
ICR mice [1] = experiment: Acute toxicity of dihydromyricetin, single oral gavage; assay type: in vivo
Experimental: (§1) Observation of the Acute Toxicity of Dihydromyricetin on ICR Mice
(§2) Preparation of test substance: weighing the test substance of the required quality; adding sterile water for injection to prepare it to the required concentration; mixing well before administration.
(§3) Animal breeds and strains: ICR mice
(§4) After the adaptation period, 30 experimental animals were divided into 3 groups, half male and […]. After fasting for 12 hours, according to the body weight, the control reagents or the test substance were administered orally respectively. The animal's clinical symptoms after administration are observed, with abnormal records. The animals were weighed before the administration and on the 1, 3, 5, and 7 days after the administration. At the end of the experiment, the animals were euthanized by inhalation of excessive CO2

[2] = as above; assay type: in vivo, mice; conditions: ICR, mouse, in vivo, po
Experimental: as §1, §2, §3, §4

ICR mice [3] = experiment: Anti-alcoholic (hangover) test; assay type: in vivo; conditions: for Number of deaths / Number of drunks: 20 animals; for Number of deaths / Number of drunks / Drunkenness rate / Mortality rate: after 10 hours of drinking
Experimental: as §2, §3
60 experimental animals were divided into 3 groups, half male and […]. After fasting for 12 hours, according to the body weight, the control reagents the test substance were administered orally respectively.

[4] = cited from earlier work

Which results are given for `O=C1c2c(O)cc(O)cc2OC(c2cc(O)c(O)c(O)c2)C1O` [Dihydromyricetin, (2R,3R)-3,5,7-trihydroxy-2-(3,4,5-trihydroxyphenyl) benzodihydropyran-4-one]?
Mortality rate (ICR mice [1]; 3500 mg/kg i.g. once, day 0): 0%; Mortality rate (ICR mice [1]; 3500 mg/kg i.g. once, day 1): 0%; Mortality rate (ICR mice [1]; 3500 mg/kg i.g. once, day 2): 0%; Mortality rate (ICR mice [1]; 3500 mg/kg i.g. once, day 3): 0%; Mortality rate (ICR mice [1]; 3500 mg/kg i.g. once, day 4): 0%; Mortality rate (ICR mice [1]; 3500 mg/kg i.g. once, day 5): 0%; Mortality rate (ICR mice [1]; 3500 mg/kg i.g. once, day 6): 0%; Mortality rate (ICR mice [1]; 3500 mg/kg i.g. once, day 7): 0%; Mortality rate (ICR mice [1]; 5000 mg/kg i.g. once, day 0): 0%; Mortality rate (ICR mice [1]; 5000 mg/kg i.g. once, day 1): 0%; Mortality rate (ICR mice [1]; 5000 mg/kg i.g. once, day 2): 0%; Mortality rate (ICR mice [1]; 5000 mg/kg i.g. once, day 3): 0%; Mortality rate (ICR mice [1]; 5000 mg/kg i.g. once, day 4): 0%; Mortality rate (ICR mice [1]; 5000 mg/kg i.g. once, day 5): 0%; Mortality rate (ICR mice [1]; 5000 mg/kg i.g. once, day 6): 0%; Mortality rate (ICR mice [1]; 5000 mg/kg i.g. once, day 7): 0%; mortality rate during the test period (ICR mice [1]; 3500 and 5000 mg/kg, single oral administration): 0; MTD at 7 days [2]: 5000 mg/kg; Sobering time (ICR mice [3]; 350 mg/kg i.g. once): 376.35 min; Tolerance time (ICR mice [3]; 350 mg/kg i.g. once): 77.40 min; Number of deaths (ICR mice [3]; 350 mg/kg i.g. once): 0; Number of drunks (ICR mice [3]; 350 mg/kg i.g. once): 19; Drunkenness rate (ICR mice [3]; 350 mg/kg i.g. once): 95%; Mortality rate (ICR mice [3]; 350 mg/kg i.g. once): 0%; Sobering time (ICR mice [3]; 1050 mg/kg i.g. once): 214.32 min; Tolerance time (ICR mice [3]; 1050 mg/kg i.g. once): 193.00 min; Number of deaths (ICR mice [3]; 1050 mg/kg i.g. once): 1; Number of drunks (ICR mice [3]; 1050 mg/kg i.g. once): 14; Drunkenness rate (ICR mice [3]; 1050 mg/kg i.g. once): 70%; Mortality rate (ICR mice [3]; 1050 mg/kg i.g. once): 5%; Sobering time (ICR mice [3]; 1050 mg/kg i.g. once, listed as dihydromyricetin): 214 min; sobering time compared with the control group (ICR mice [3]; 1050 mg/kg, control group 324 min, statistically different): significantly lower; solubility in chloroform and petroleum ether ([4]; chloroform and petroleum ether): hardly soluble; solubility in ethyl acetate ([4]; ethyl acetate): very slightly soluble; solubility in methanol, ethanol and acetone ([4]; methanol, ethanol and acetone): easily soluble; solubility in water ([4]; room temperature and cold water): Low solubility

Reference: patent publication US20220079913A1, “DIHYDROMYRICETIN WITH ANTI-ALCOHOLIC EFFECT” (Shanghai Spark Pharmaceutical Co., Ltd., priority 2020, published 2022)
